The target of test [1] is human Adenosine A1 receptor (Homo sapiens (Human), UniProt P30542). Nature of the test: Adenosine receptor TR-FRET binding assay (A1). The note with it: inhibition of binding of 100 nM CA200645, CHO cell membranes. The essentials:
(§1)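 CHO membranes, Tb-labelled hA1/hA2a/hA2b/hA3; tracer CA200645 at 100 nM (A1, A2a, A3) or 30 nM (A2b); buffer with saponin, 1% DMSO, pluronic; 2 h RT. NSB with 10 μM XAC. Read TR-FRET (ex 337, em 620/665 nm); IC50 → Ki via Cheng–Prusoff.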
For orientation: TR-FRET usually uses a lanthanide donor and a delayed reading to cut background.

Test [2] deals with human Adenosine A2a receptor (Homo sapiens (Human), UniProt P29274). Nature of the test: Adenosine receptor TR-FRET binding assay (A2a). The conditions noted are these: inhibition of binding of 100 nM CA200645, CHO cell membranes. The method in brief:
as §1

Test [3] concerns the target human Adenosine A3 receptor (Homo sapiens (Human), UniProt P0DMS8). As to the kind of experiment: Adenosine receptor TR-FRET binding assay (A3). The note with it: inhibition of binding of 100 nM CA200645, CHO cell membranes. As for the experimental part:
Biological Example 1—Adenosine Receptor Time-Resolved Fluorescence Resonance Energy Transfer (TRFRET) Binding Assay
All FRET binding experiments were conducted at room temperature in white 384-well plates, in assay binding buffer containing 1×LabMed (Cisbio, France), 100 μg/mL saponin, 1% DMSO and 0.02% pluronic acid. Binding of the fluorescently labelled Adenosine receptor antagonist XAC (CA200645, FRET acceptor) to terbium-labelled A1, A2a, A2b and A3 adenosine receptors (FRET donors) was detected by time-resolved FRET due to the close proximity of the donor and acceptor in a binding event. To investigate the ability of unlabelled test compounds to bind to Adenosine A1, A2a, A2b and A3 receptors, dose response curves were constructed that determined the ability of a range of concentrations to inhibit the binding of 30 nM CA200645 to the A2b receptor and 100 nM CA200645 to the A1, A2a, and A3 receptor.
Serial dilution (1:3 dilutions) of test compounds in neat DMSO and transfer of a 400 nL sample of test compound into the assay plate was carried out using the Mosquito (TTP Labtech, UK). The compound samples were incubated for 2 hours at room temperature with a fixed concentration of CA200645 defined for each receptor (see above) and CHO cell membranes containing the human Adenosine A1 (0.5 μg/well), A2a (0.3 μg/well), A2b (1 μg/well) or A3 (1 μg/well) receptor in 40 μL of assay buffer. Total and non-specific binding of CA200645 was determined in the absence and presence of 10 μM XAC, respectively. Following 2 hours incubation, the level of CA200645 binding was detected on a Pherastar FSX (BMG Labtech, Germany) using standard TR-FRET settings. The terbium donor was excited with three laser flashes at a wavelength of 337 nm, and donor and acceptor emission was detected at 620 nm and 665 nm wavelengths, respectively. FRET ratios were obtained by multiplying the acceptor/donor ratio value by 10,000. Specific binding was determined by subtracting the non-specific binding FRET ratio from the total binding FRET ratio. Compound IC50 curves were analysed using GraphPad Prism 7.0 (GraphPad, USA) and Ki affinity values were determined from the obtained IC50 values using the method of Cheng and Prusoff.

Test [4] concerns the target human Adenosine A2b receptor (Homo sapiens (Human), UniProt P29275). Nature of the test: Adenosine receptor TR-FRET binding assay (A2b). The conditions noted are these: TR-FRET, inhibition of binding of 30 nM CA200645, CHO cell membranes. The method in brief:
as §1

SMILES strings stand for the structures.

human Adenosine A2a receptor, sequence (P29274 whole entry): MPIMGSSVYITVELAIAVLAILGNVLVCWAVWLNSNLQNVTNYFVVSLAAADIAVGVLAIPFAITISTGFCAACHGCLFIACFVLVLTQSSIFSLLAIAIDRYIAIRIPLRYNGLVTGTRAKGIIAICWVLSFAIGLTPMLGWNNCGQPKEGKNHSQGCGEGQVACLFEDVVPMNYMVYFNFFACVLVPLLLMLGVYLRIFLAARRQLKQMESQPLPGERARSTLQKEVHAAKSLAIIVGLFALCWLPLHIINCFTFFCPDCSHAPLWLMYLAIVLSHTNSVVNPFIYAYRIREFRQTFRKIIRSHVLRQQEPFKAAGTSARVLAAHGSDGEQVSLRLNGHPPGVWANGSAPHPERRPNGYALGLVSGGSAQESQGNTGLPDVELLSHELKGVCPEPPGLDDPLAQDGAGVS
human Adenosine A1 receptor, sequence (P30542 whole entry): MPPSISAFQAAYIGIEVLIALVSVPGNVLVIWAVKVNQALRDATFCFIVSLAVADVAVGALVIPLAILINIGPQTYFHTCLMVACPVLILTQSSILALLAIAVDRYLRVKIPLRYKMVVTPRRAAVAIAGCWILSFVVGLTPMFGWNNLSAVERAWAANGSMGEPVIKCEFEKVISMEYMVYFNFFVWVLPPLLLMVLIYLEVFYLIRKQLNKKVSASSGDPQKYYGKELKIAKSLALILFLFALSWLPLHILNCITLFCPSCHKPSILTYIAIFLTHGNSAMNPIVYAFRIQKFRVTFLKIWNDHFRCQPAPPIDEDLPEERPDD
human Adenosine A3 receptor, sequence (P0DMS8 whole entry): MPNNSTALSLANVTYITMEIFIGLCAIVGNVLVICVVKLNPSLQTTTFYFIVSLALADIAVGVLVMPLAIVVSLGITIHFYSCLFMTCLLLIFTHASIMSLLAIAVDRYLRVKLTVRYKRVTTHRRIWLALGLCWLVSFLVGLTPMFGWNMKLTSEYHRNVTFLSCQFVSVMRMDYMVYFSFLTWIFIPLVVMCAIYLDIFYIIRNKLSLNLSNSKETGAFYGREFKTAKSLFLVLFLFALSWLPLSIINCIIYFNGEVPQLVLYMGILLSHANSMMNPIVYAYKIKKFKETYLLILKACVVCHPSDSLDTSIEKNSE
human Adenosine A2b receptor, sequence (P29275 whole entry): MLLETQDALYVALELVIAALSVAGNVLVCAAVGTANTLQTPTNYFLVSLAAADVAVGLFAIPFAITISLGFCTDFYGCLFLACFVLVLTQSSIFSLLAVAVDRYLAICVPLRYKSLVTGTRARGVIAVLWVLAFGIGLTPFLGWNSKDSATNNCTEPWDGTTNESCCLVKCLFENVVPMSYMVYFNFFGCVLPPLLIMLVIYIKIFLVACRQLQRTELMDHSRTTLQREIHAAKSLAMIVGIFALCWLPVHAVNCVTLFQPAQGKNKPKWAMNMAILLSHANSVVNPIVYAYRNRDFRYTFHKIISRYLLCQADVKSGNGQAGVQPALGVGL

One may read the Ki as a dissociation constant, usually derived from enzyme kinetics or from competition with a known ligand. As to `Cc1cc(-c2sc(NC(=O)N3CCN4C(=O)NC(=O)C4C3)nc2-c2cccc(C#N)c2)cc(C)n1` (stereo not drawn) [Example 6.23, N-[4-(3-Cyanophenyl)-5-(2,6-dimethyl-4-pyridyl)thiazol-2-yl]-1,3-dioxo-5,6,8,8a-tetrahydroimidazo[1,5-a]pyrazine-7-carboxamide], the Ki in test [1] amounted to 0.092 µM; in test [2], 0.00299 µM; in test [3] it was 0.394 µM; in test [4] it was 0.0065 µM.
For `Cc1cc(-c2sc(NC(=O)N3CCC(c4ncc[nH]4)CC3)nc2-c2cccc(C#N)c2)cc(C)n1` [Example 6.25, N-[4-(3-Cyanophenyl)-5-(2,6-dimethyl-4-pyridyl)thiazol-2-yl]-4-(1H-imidazol-2-yl)piperidine-1-carboxamide] the same measures were 0.002 µM, 0.00173 µM, 0.094 µM and 0.0011 µM.
For `Cc1cc(-c2sc(NC(=O)N3CCn4ccnc4C3)nc2-c2cccc(C#N)c2)cc(C)n1` [Example 6.27, N-[4-(3-Cyanophenyl)-5-(2,6-dimethyl-4-pyridyl)thiazol-2-yl]-6,8-dihydro-5H-imidazo[1,2-a]pyrazine-7-carboxamide], the Ki amounted to 0.045 µM in test [1], 0.00101 µM in test [2], 0.151 µM in test [3] and 0.0014 µM in test [4].
For `CNC(=O)C1CCN(C(=O)Nc2nc(-c3cccc(C#N)c3)c(-c3cc(C)nc(C)c3)s2)CC1` [Example 6.28, N1-[4-(3-Cyanophenyl)-5-(2,6-dimethyl-4-pyridyl)thiazol-2-yl]-N4-methyl-piperidine-1,4-dicarboxamide] the same measures were 0.032 µM, 0.00484 µM, 0.226 µM and 0.0032 µM.
The corresponding values for `Cc1cc(-c2sc(NC(=O)N3CCC(c4ncno4)CC3)nc2-c2cccc(C#N)c2)cc(C)n1` [Example 6.31, N-[4-(3-Cyanophenyl)-5-(2,6-dimethyl-4-pyridyl)thiazol-2-yl]-4-(1,2,4-oxadiazol-5-yl)piperidine-1-carboxamide] are 0.019 µM, 0.0015 µM, 0.186 µM and 0.0021 µM.
The corresponding values for `Cc1cc(-c2sc(NC(=O)N3CCC(C(=O)NCCO)CC3)nc2-c2cccc(C#N)c2)cc(C)n1` [Example 6.33, N1-[4-(3-Cyanophenyl)-5-(2,6-dimethyl-4-pyridyl)thiazol-2-yl]-N4-(2-hydroxyethyl)piperidine-1,4-dicarboxamide] are 0.051 µM, 0.00365 µM, 0.268 µM and 0.0036 µM.
Take `Cc1cc(-c2sc(NC(=O)N3CC4(CCOC(=O)N4)C3)nc2-c2cccc(C#N)c2)cc(C)n1` [Example 6.34, N-[4-(3-Cyanophenyl)-5-(2,6-dimethyl-4-pyridyl)thiazol-2-yl]-6-oxo-7-oxa-2,5-diazaspiro[3.5]nonane-2-carboxamide]: the Ki worked out at 0.026 µM in test [1], 0.00064 µM in test [2], 0.166 µM in test [3] and 0.0021 µM in test [4].
Turning to `Cc1cc(-c2sc(NC(=O)N3CCN4C(=O)CNC(=O)C4C3)nc2-c2cccc(C#N)c2)cc(C)n1` (stereo not drawn) [Example 6.35, N-[4-(3-Cyanophenyl)-5-(2,6-dimethyl-4-pyridyl)thiazol-2-yl]-6,9-dioxo-1,3,4,7,8,9a-hexahydropyrazino[1,2-a]pyrazine-2-carboxamide], the Ki in test [1] stood at 0.243 µM; in test [2], 0.00958 µM; in test [3], 0.303 µM; in test [4], 0.0209 µM.
Regarding `Cc1cc(-c2sc(NC(=O)N3CCN4C(=O)COCC4C3)nc2-c2cccc(C#N)c2)cc(C)n1` (stereo not drawn) [Example 6.37, N-[4-(3-Cyanophenyl)-5-(2,6-dimethyl-4-pyridyl)thiazol-2-yl]-4-oxo-6,7,9,9a-tetrahydro-1H-pyrazino[2,1-c][1,4]oxazine-8-carboxamide], the inhibitory constant (Ki) was 0.091 µM in test [1], 0.00182 µM in test [2], 0.356 µM in test [3] and 0.0101 µM in test [4].
The corresponding values for `Cc1cc(-c2sc(NC(=O)N3CCN4C(=O)CN(C)C(=O)C4C3)nc2-c2cccc(C#N)c2)cc(C)n1` (stereo not drawn) [Example 6.39, N-[4-(3-Cyanophenyl)-5-(2,6-dimethyl-4-pyridyl)thiazol-2-yl]-8-methyl-6,9-dioxo-3,4,7,9a-tetrahydro-1H-pyrazino[1,2-a]pyrazine-2-carboxamide] are 0.383 µM, 0.0101 µM, 0.389 µM and 0.0396 µM.
The corresponding values for `Cc1cc(-c2sc(NC(=O)N3CCN4C(=O)CCCC4C3)nc2-c2cccc(C#N)c2)cc(C)n1` (stereo not drawn) [Example 6.43, N-[4-(3-Cyanophenyl)-5-(2,6-dimethyl-4-pyridyl)thiazol-2-yl]-6-oxo-3,4,7,8,9,9a-hexahydro-1H-pyrido[1,2-a]pyrazine-2-carboxamide] are 0.051 µM, 0.00112 µM, 0.175 µM and 0.0082 µM.
For `Cc1cc(-c2sc(NC(=O)N3C[C@H]4COC[C@H]4C3)nc2-c2cccc(C#N)c2)cc(C)n1` [Example 6.49, (3aR,6aS)-N-[4-(3-Cyanophenyl)-5-(2,6-dimethyl-4-pyridyl)thiazol-2-yl]-1,3,3a,4,6,6a-hexahydrofuro[3,4-c]pyrrole-5-carboxamide], the Ki was found to be 0.051 µM in test [1], 0.00127 µM in test [2], 0.324 µM in test [3] and 0.0022 µM in test [4].
The corresponding values for `Cc1cc(-c2sc(NC(=O)N3C[C@@H]4CNC(=O)[C@@H]4C3)nc2-c2cccc(C#N)c2)cc(C)n1` [Example 6.52, (3aS,6aS)-N-[4-(3-Cyanophenyl)-5-(2,6-dimethyl-4-pyridyl)thiazol-2-yl]-3-oxo-1,2,3a,4,6,6a-hexahydropyrrolo[3,4-c]pyrrole-5-carboxamide] are 0.12 µM, 0.0043 µM, 0.238 µM and 0.0086 µM.
The corresponding values for `CCN1CCN(C(=O)Nc2nc(-c3cccc(C#N)c3)c(-c3cc(C)nc(C)c3)s2)CC1` [Example 6.60, N-[4-(3-Cyanophenyl)-5-(2,6-dimethyl-4-pyridyl)thiazol-2-yl]-4-ethyl-piperazine-1-carboxamide] are 0.185 µM, 0.00309 µM, 0.455 µM and 0.0062 µM.
Take `Cc1cc(-c2sc(NC(=O)N3CCC(C(=O)O)CC3)nc2-c2cccc(C#N)c2)cc(C)n1` [Example 6.62, 1-[[4-(3-Cyanophenyl)-5-(2,6-dimethyl-4-pyridyl)thiazol-2-yl]carbamoyl]piperidine-4-carboxylic acid]: the Ki in test [1] turned out to be 0.219 µM; in test [2], 0.0357 µM; in test [3], 0.358 µM; in test [4], 0.0233 µM.
For `Cc1cc(-c2sc(NC(=O)N3CC[C@H](C(=O)O)C3)nc2-c2cccc(C#N)c2)cc(C)n1` [Example 6.63, (3S)-1-[[4-(3-Cyanophenyl)-5-(2,6-dimethyl-4-pyridyl)thiazol-2-yl]carbamoyl]pyrrolidine-3-carboxylic acid] the same measures were 0.343 µM, 0.0343 µM, 0.2 µM and 0.0292 µM.
For `Cc1cc(-c2sc(NC(=O)N3CC[C@@H](C(=O)O)C3)nc2-c2cccc(C#N)c2)cc(C)n1` [Example 6.65, (3R)-1-[[4-(3-Cyanophenyl)-5-(2,6-dimethyl-4-pyridyl)thiazol-2-yl]carbamoyl]pyrrolidine-3-carboxylic acid], the Ki is 0.185 µM in test [1], 0.0456 µM in test [2], 0.295 µM in test [3] and 0.0173 µM in test [4].
For `Cc1cc(-c2sc(NC(=O)N3CC(C(=O)O)C3)nc2-c2cccc(C#N)c2)cc(C)n1` [Example 6.70, 1-[[4-(3-Cyanophenyl)-5-(2,6-dimethyl-4-pyridyl)thiazol-2-yl]carbamoyl]azetidine-3-carboxylic acid] the same measures were 0.163 µM, 0.00959 µM, 0.192 µM and 0.0131 µM.

For the origin of these results see US20230293517A1, “ANTAGONIST COMPOUNDS” (AdoRx Therapeutics Limited, priority 2020, published 2023).
